According to ChEMBL document CHEMBL4350984, “Natural products as multidrug resistance modulators in cancer” (Eur J Med Chem, 2019):
pIC50: −log10 of the molar value.

Experiments:
cells = conditions: Homo sapiens, 72 h
Description: Downregulation of ABCB1 gene expression in human EPG85-257RDB cells after 72 hrs by RT-PCR analysis

[1] = Cytotoxicity against human KBv200 cells assessed as reduction in cell viability; assay type: functional, cell-based
Homo sapiens [2] = organism: Homo sapiens; assay: Inhibition of BCRP-mediated mitoxantrone efflux in human NCI-H460/MX20 cells assessed as mitoxantrone accumulation at 10 uM after 15 mins by Hoechst 33342 staining based flow cytometry analysis relative to control; assay type: cell-based; design: scale not given: the % may be the effect or the level left
Homo sapiens [3] = organism: Homo sapiens; assay: Inhibition of BCRP-mediated mitoxantrone efflux in human NCI-H460/MX20 cells assessed as mitoxantrone accumulation at 20 uM after 15 mins by Hoechst 33342 staining based flow cytometry analysis relative to control; assay type: cell-based; design: scale not given: the % may be the effect or the level left

Compound: O=c1c(O)c(-c2ccc(O)c(O)c2)oc2cc(O)cc(O)c12 [QUERCETIN]
- pIC50 (cells): 4.92

Compound: COc1ccc2cc1Oc1ccc(cc1)C[C@H]1c3cc(c(OC)cc3CCN1C)Oc1c(OC)c(OC)cc3c1[C@H](C2)N(C)CC3 [FANCHININ]
- pIC50 [1]: 5.70

Compound: COc1ccc2c3c([nH]c2c1)[C@H](C=C(C)C)N1C(=O)[C@@H]2CCCN2C(=O)[C@@H]1C3
- Activity (Homo sapiens [2]): 100%

Compound: COC(=O)c1c(-c2ccc(O)cc2)c(-c2ccc(O)cc2)cn1CC(=O)c1ccc(OC)cc1
- Activity (Homo sapiens [3]): 94.5%
